The values below come from US10961200B2, “Small molecule inhibitors of lactate dehydrogenase and methods of use thereof” (THE UNITED STATES OF AMERICA, AS REPRESENTED BY THE …, priority 2014, dated 2021).

One test has as its target Human LDHA (Homo sapiens (Human), UniProt P00338). Nature of the test: human LDHA primary biochemical assay (resazurin/diaphorase coupled, fluorescence). The following applies: LDHA inhibitory activity, assay of Example 1; activity level classes. The source says:
Test compounds were placed in a Greiner Bio-One (Monroe, N.C.) 1536-well black solid bottom assay plate. 200 millimolar (mM) Tris HCl, pH 7.4, 100 micromolar […] EDTA and 0.01% TWEEN-20™, final concentration, was used as the assay buffer. The LDHA reagent was 2 nanomolar (nM) Human LDHA (Meridian Life Science, Inc., Memphis, Tenn.), final concentration, in assay buffer.
Take `O=C(O)c1csc(-n2cc(Cc3ccc(CO)cc3)c(-c3ccccc3)n2)n1` [Compound 199, 2-(4-(4-(hydroxymethyl)benzyl)-3-phenyl-1H-pyrazol-1-yl)thiazole-4-carboxylic acid]: the IC50 (usually the concentration that inhibits the measured activity by half) is more than 57000 nM.
Still for that read-out and setting: then `NS(=O)(=O)c1ccc(Cc2c(-c3cccc(-c4ccccc4)c3)nn(-c3nc(C(=O)O)cs3)c2C2CC2(F)F)cc1` (centres unmarked) [Compound 205, 2-(3-([1,1′-biphenyl]-difluorocyclopropyl)-4-(4-sulfamoylbenzyl)-1H-pyrazol-1-yl)thiazole-4-carboxylic acid], with less than 100 nM; and `NS(=O)(=O)c1ccc(Cc2cn(-c3csc4c(=O)[nH]cnc34)nc2-c2ccccc2)cc1` [Compound 210, 4-((1-(4-oxo-3,4-dihydrothieno[3,2-d]pyrimidin-7-yl)-3-phenyl-1H-pyrazol-4-yl)methyl)benzenesulfonamide], with more than 57000 nM; and `NS(=O)(=O)c1ccc(Cc2cn(-c3nc(Br)cs3)nc2-c2ccccc2)cc1` [Compound 235], with 1000 to 57000 nM.
Molecule `COc1cccc(-c2cc(-c3c(Cc4ccc([S+](N)(=O)[O-])cc4)c(CC4CC4)nn3-c3nc(C(=O)O)cs3)ccc2F)c1` [Compound 236] returned a half-inhibitory concentration (IC50) of more than 57000 nM.
On the same count and under the same terms, then `NS(=O)(=O)c1ccc(Cc2c(-c3ccc(F)c(-c4ccc(F)cc4)c3)nn(-c3nc(C(=O)O)cs3)c2C(F)(F)F)cc1` [Compound 240], with less than 100 nM; and `NS(=O)(=O)c1ccc(Cc2c(-c3ccc(F)c(-c4cccc(F)c4)c3)nn(-c3nc(C(=O)O)cs3)c2C(F)(F)F)cc1` [Compound 241], with less than 100 nM.
On the same count and under the same terms, then `COc1cccc(-c2cc(-c3nn(-c4nc(C(=O)O)cs4)c(C(F)(F)F)c3Cc3ccc(S(N)(=O)=O)cc3)ccc2F)c1` [Compound 242], with less than 100 nM; and `Cc1ccc(-c2cc(-c3nn(-c4nc(C(=O)O)cs4)c(C(F)(F)F)c3Cc3ccc(S(N)(=O)=O)cc3)ccc2F)cc1` [Compound 243], with less than 100 nM; and `CCOC(=O)c1csc(-n2nc(-c3cccc(-c4ccccc4)c3)c(Cc3ccc(S(N)(=O)=O)cc3F)c2C2CC2)n1` [Compound 244], with more than 57000 nM.
Still for that read-out and setting: the value for `CCOC(=O)c1csc(-n2nc(-c3ccc(F)c(-c4ccc(C)cc4)c3)c(Cc3ccc(S(N)(=O)=O)c(F)c3)c2C2CC2)n1` [Compound 245] was 1000 to 57000 nM; that for `CCOC(=O)c1csc(-n2nc(-c3ccc(F)c(-c4ccc(F)cc4)c3)c(Cc3ccc(S(N)(=O)=O)c(F)c3)c2C2CC2)n1` [Compound 246] was 1000 to 57000 nM.
The molecule `CCOC(=O)c1csc(-n2nc(-c3ccc(F)c(-c4cccc(F)c4)c3)c(Cc3ccc(S(N)(=O)=O)c(F)c3)c2C2CC2)n1` [Compound 247] had an IC50 of 1000 to 57000 nM.
For `CCOC(=O)c1csc(-n2nc(-c3ccc(F)c(-c4cccc(OC)c4)c3)c(Cc3ccc(S(N)(=O)=O)c(F)c3)c2C2CC2)n1` [Compound 248], the IC50 is more than 57000 nM.
The same measure, in the same setting: the value for `Cc1ccc(-c2cc(-c3nn(-c4nc(C(=O)O)cs4)c(C4CC4)c3Cc3ccc(S(N)(=O)=O)c(F)c3)ccc2F)cc1` [Compound 249] was less than 100 nM; that for `NS(=O)(=O)c1ccc(Cc2c(-c3ccc(F)c(-c4ccc(F)cc4)c3)nn(-c3nc(C(=O)O)cs3)c2C2CC2)cc1F` [Compound 250] was less than 100 nM; that for `Cc1ccc(-c2cc(-c3nn(-c4nc(C(=O)O)cs4)c(C4CC4)c3Cc3ccc(S(N)(=O)=O)cc3F)ccc2F)cc1` [Compound 253] was less than 100 nM.
`NS(=O)(=O)c1ccc(Cc2c(-c3ccc(F)c(-c4ccc(F)cc4)c3)nn(-c3nc(C(=O)O)cs3)c2C2CC2)c(F)c1` [Compound 254] returned an IC50 of less than 100 nM.
With `NS(=O)(=O)c1ccc(Cc2c(-c3ccc(F)c(-c4cccc(F)c4)c3)nn(-c3nc(C(=O)O)cs3)c2C2CC2)c(F)c1` [Compound 255], the IC50 was less than 100 nM.
Regarding `COc1cccc(-c2cc(-c3nn(-c4nc(C(=O)O)cs4)c(C4CC4)c3Cc3ccc([S+](N)(=O)[O-])cc3F)ccc2F)c1` [Compound 256], the IC50 is less than 100 nM.
The same measure, in the same setting: the value for `CC#Cc1cccc(-c2nn(-c3nc(C(=O)O)cs3)c(CC3CC3)c2Cc2ccc(S(N)(=O)=O)c(F)c2)c1` [Compound 270] was less than 100 nM; that for `C#Cc1c(Cc2ccc(S(N)(=O)=O)cc2)c(-c2ccccc2)nn1-c1nc(C(=O)O)cs1` [Compound 271] was 1000 to 57000 nM.
`CCOC(=O)c1csc(-n2nc(-c3ccccc3)c(Cc3ccc(S(N)(=O)=O)cc3)c2C2CC2)n1` [Compound 272] displayed an IC50 of more than 57000 nM.
Same read-out and setting: then `CCOC(=O)c1csc(-n2nc(C3CCCCC3)c(Oc3ccc([S+](N)(=O)[O-])cc3)c2-c2ccccc2)n1` [Compound 273], with more than 57000 nM; and `CCOC(=O)c1csc(-n2nc(-c3ccccc3)c(Oc3ccc([S+](N)(=O)[O-])cc3)c2C2CCCCC2)n1` [Compound 274], with more than 57000 nM.

The same test, now with this note: read-out: Inhibitory activity IC50.
`O=C(O)c1csc(-n2cc(Cc3ccc(CO)cc3)c(-c3cccc(-c4ccccc4)c3)n2)n1` [Compound 200, 2-(3-([1,1′-biphenyl]-3-yl)-4-(4-(hydroxymethyl)benzyl)-1H-pyrazol-1-yl)thiazole-4-carboxylic acid]: the IC50 lay within 1000 to 57000 nM.
For `NS(=O)(=O)c1ccc(Cc2cn(-c3nc(C(=O)O)cs3)c3cc(CO)ccc23)cc1` [Compound 201, 2-(6-(hydroxymethyl)-3-(4-sulfamoylbenzyl)-1H-indol-1-yl)thiazole-4-carboxylic acid], the IC50 was 100 to 1000 nM.
Consider `NS(=O)(=O)c1ccc(Cc2cn(-c3nc(C(=O)O)cs3)c3c(F)cccc23)cc1` [Compound 202, 2-(7-fluoro-3-(4-sulfamoylbenzyl)-1H-indol-1-yl)thiazole-4-carboxylic acid], for which the IC50 fell in the range of 100 to 1000 nM.
Still for that read-out and setting: the value for `NS(=O)(=O)c1ccc(Cc2c(CCC3CC3)nn(-c3nc(C(=O)O)cs3)c2-c2cccc(-c3ccccc3)c2)cc1` [Compound 204, 2-(5-([1,1′-biphenyl]-3-yl)-3-(2-cyclopropylethyl)-4-(4-sulfamoylbenzyl)-1H-pyrazol-1-yl)thiazole-4-carboxylic acid] was 1000 to 57000 nM; that for `NS(=O)(=O)c1ccc(Cc2c(CC3CC3(F)F)nn(-c3nc(C(=O)O)cs3)c2-c2cccc(-c3ccccc3)c2)cc1` (centres unmarked) [Compound 208, 2-(5-([1,1′-biphenyl]-3-yl)-5-((2,2-difluorocyclopropyl)methyl)-4-(4-sulfamoylbenzyl)-1H-pyrazol-1-yl)thiazole-4-carboxylic acid] was 1000 to 57000 nM.
Still for that read-out and setting: the value for `Nc1ncnc2c(-n3cc(Cc4ccc(S(N)(=O)=O)cc4)c(-c4ccccc4)n3)csc12` [Compound 211, 4-((1-(4-aminothieno[3,2-d]pyrimidin-7-yl)-3-phenyl-1H-pyrazol-4-yl)methyl)benzenesulfonamide] was 1000 to 57000 nM.
Still for that read-out and setting: then `Cc1noc(C)c1-c1cc(-c2c(Cc3ccc(S(N)(=O)=O)cc3F)c(CC3CC3)nn2-c2nc(C(=O)O)cs2)ccc1F` [Compound 216, 2-(3-(cyclopropylmethyl)-5-(3-(3,5-dimethylisoxazol-4-yl)-4-fluorophenyl)-4-(2-fluoro-4-sulfamoylbenzyl)-1H-pyrazol-1-yl)thiazole-4-carboxylic acid], with more than 57000 nM.
Consider `Cn1cc(-c2cc(-c3c(Cc4ccc(S(N)(=O)=O)c(F)c4)c(CC4CC4)nn3-c3nc(C(=O)O)cs3)ccc2F)cn1` [Compound 218, 2-(3-(cyclopropylmethyl)-5-(4-fluoro-3-(1-methyl-1H-pyrazol-4-yl)phenyl)-4-(3-fluoro-4-sulfamoylbenzyl)-1H-pyrazol-1-yl)thiazole-4-carboxylic acid], for which the IC50 was more than 57000 nM.
With `Cc1noc(C)c1-c1cc(-c2c(Cc3ccc(S(N)(=O)=O)c(F)c3)c(CC3CC3)nn2-c2nc(C(=O)O)cs2)ccc1F` [Compound 220, 2-(3-(cyclopropylmethyl)-5-(3-(3,5-dimethylisoxazol-4-yl)-4-fluorophenyl)-4-(3-fluoro-4-sulfamoylbenzyl)-1H-pyrazol-1-yl)thiazole-4-carboxylic acid], the IC50 was more than 57000 nM.
Same read-out and setting: the value for `Cc1csc(-c2cc(-c3c(Cc4ccc(S(N)(=O)=O)cc4F)c(CC4CC4)nn3-c3nc(C(=O)O)cs3)ccc2F)c1` [Compound 222, 2-(3-(cyclopropylmethyl)-5-(4-fluoro-3-(4-methylthiophen-2-yl)phenyl)-4-(2-fluoro-4-sulfamoylbenzyl)-1H-pyrazol-1-yl)thiazole-4-carboxylic acid] was more than 57000 nM.
On to `Cc1csc(-c2cc(-c3c(Cc4ccc(S(N)(=O)=O)c(F)c4)c(CC4CC4)nn3-c3nc(C(=O)O)cs3)ccc2F)c1` [Compound 224, 2-(3-(cyclopropylmethyl)-5-(4-fluoro-3-(4-methylthiophen-2-yl)phenyl)-4-(3-fluoro-4-sulfamoylbenzyl)-1H-pyrazol-1-yl)thiazole-4-carboxylic acid], for which the IC50 is more than 57000 nM.
For the molecule `Cc1ccc(-c2cc(-c3c(Cc4ccc(S(N)(=O)=O)cc4F)c(CC4CC4)nn3-c3nc(C(=O)O)cs3)ccc2F)s1` [Compound 226, 2-(3-(cyclopropylmethyl)-5-(4-fluoro-3-(5-methylthiophen-2-yl)phenyl)-4-(2-fluoro-4-sulfamoylbenzyl)-1H-pyrazol-1-yl)thiazole-4-carboxylic acid], the IC50 was more than 57000 nM.
The same measure, in the same setting: the value for `Cc1ccc(-c2cc(-c3c(Cc4ccc(S(N)(=O)=O)c(F)c4)c(CC4CC4)nn3-c3nc(C(=O)O)cs3)ccc2F)s1` [Compound 228, 2-(3-(cyclopropylmethyl)-5-(4-fluoro-3-(5-methylthiophen-2-yl)phenyl)-4-(3-fluoro-4-sulfamoylbenzyl)-1H-pyrazol-1-yl)thiazole-4-carboxylic acid] was more than 57000 nM.
As to `N[S+](=O)([O-])c1ccc(Cc2c(CC3CC3)nn(-c3nc(C(=O)O)cs3)c2-c2ccc(F)c(-c3cccc(F)c3)c2)cc1` [Compound 238], the IC50 lay within 1000 to 57000 nM.
On the same count and under the same terms, the value for `N[S+](=O)([O-])c1ccc(Cc2c(Cc3ccccc3)nn(-c3nc(C(=O)O)cs3)c2-c2ccccc2)cc1` [Compound 275] was 1000 to 57000 nM; that for `COc1cc(-c2c(Cc3ccc([S+](N)(=O)[O-])cc3)c(CC3CC3)nn2-c2nc(C(=O)O)cs2)ccc1F` [Compound 277] was 1000 to 57000 nM.
